For experiment [1], the system named is NSCLC cell lines (LLC, H1650 and A549). Description: Cell Titer-Glo cell viability assay. It is filed as cell-based, mouse (LLC), human (H1650. The following applies: 48 h, range over LLC. On the procedure:
FIGS. 1A-lE depict that WFA induces ER stress-mediated apoptosis in NSCLC cell lines. (FIG. 1A) NSCLC cells were plated on 96-well plates and treated with different concentrations of WFA ([…]) in triplicates. Forty-eight hours post-treatment, cell viability was determined using Cell Titer-Glo assay. Luminescence values were normalized to control untreated cells and IC50 values are represented as the mean of two independent experiments ±SEM. (FIG. 1B) NSCLC cells were treated WFA for forty-eight hours, then collected to measure apoptotic cell death using Annexin V assay in LLC cells, H1650 cells, and A549 cells. Percentages of early (annexin*DAPI-) and late (annexin*DAPI+) apoptotic cells are represented as means of two separate experiments ±SEM and statistical significance was calculated using one-way ANOVA and a Fisher LSD post hoc test was used to compare the mean of each group to that of the control group. […] The quantification of western blot band density was performed using Image J software v.1.54d and normalized to housekeeping control protein in LLC cells (0-actin). […]
LLC, H1650, or A549 was plated in 96-well plates and treated with WFA (serialdilutions 10-0.078 μM) in triplicates. […] Forty-eight hours after treatment, cell viability was determined using Cell Titer-Glo assay (Promega, Madison, WI, USA) according to the manufacturer's instructions. […]

For experiment [2], the system named is apoptotic marker transcripts in NSCLC cell lines. Kind of experiment: qRT-PCR of pro- and anti-apoptotic transcripts. It is filed as cell-based, mouse (LLC), human (H1650, A549). On the procedure: FIGS. 1A-lE depict that WFA induces ER stress-mediated apoptosis in NSCLC cell lines. (FIG. 1A) NSCLC cells were plated on 96-well plates and treated with different concentrations of WFA ([…]) in triplicates. Forty-eight hours post-treatment, cell viability was determined using Cell Titer-Glo assay. Luminescence values were normalized to control untreated cells and IC50 values are represented as the mean of two independent experiments ±SEM. (FIG. 1B) NSCLC cells were treated WFA for forty-eight hours, then collected to measure apoptotic cell death using Annexin V assay in LLC cells, H1650 cells, and A549 cells. Percentages of early (annexin*DAPI-) and late (annexin*DAPI+) apoptotic cells are represented as means of two separate experiments ±SEM and statistical significance was calculated using one-way ANOVA and a Fisher LSD post hoc test was used to compare the mean of each group to that of the control group. (FIGS. 1C-1D) WFA treated cells were collected in Trizol and total RNA was isolated to measure the levels of Bax (FIG. 1C) and Bcl2 (FIG. 1D) mRNA using qRT-PCR. PCR experiments were repeated at least twice, and one representative experiment is shown as mean±SEM of the technical replicates. (FIG. 1E) Western blot of ER stress markers p-eIF-2 and CHOP was performed using total lysates of WFA-treated LLC cells. The quantification of western blot band density was performed using Image J software v.1.54d and normalized to housekeeping control protein in LLC cells (0-actin). […] Data were obtained from two independent experiments.
FIGS. 7A-7I depict qRT-PCR analysis of the change in expression of pro-apoptotic and anti-apoptotic induced by WFA treatment. WFA increased the mRNA levels of proapoptotic protein Bak-1 in (FIG. 7A) LLC cells and BAD in (FIG. 7C) H1650 cells. […] PCR was repeated twice, and one representative experiment is shown as mean±SEM of 3 technical replicates. […] (FIGS. 7G-7I) Western blots.
Total cellular RNA was isolated from collected cell pellets using TRIzol reagent (Invitrogen, Waltham, MA, USA) and then quantified using the 2000 Nanodrop spectrophotometer (Thermo Fisher Scientific, Waltham, MA, USA). cDNA synthesis was performed using the Verso cDNA synthesis kit (Thermo Fisher Scientific, Waltham, MA, USA). qPCR was then performed using Forget-Me-Not EvaGreen qPCR Master Mix (Biotium, Fremont, CA, USA) in a Bio-Rad CFX384 thermocycler according to the manufacturer's instructions. The CFX Maestro software version 2.3 (Bio-Rad, Hercules, CA, USA) was used to calculate the ΔCt and ΔΔCt values and gene expression was normalized to housekeeping genes glyceraldehyde 3-phosphate dehydrogenase (GAPDH) or β-actin. The sequences of PCR primers used are listed in Table 2 (Integrated DNA Technologies, Inc, Coralville, IA, USA).
In general terms: In qPCR the cycle at which signal appears reflects the starting amount.

The structures appear in SMILES notation.

`CC1=C(CO)C(=O)O[C@@H]([C@@H](C)[C@H]2CC[C@H]3[C@@H]4C[C@H]5O[C@]56[C@@H](O)C=CC(=O)[C@]6(C)[C@H]4CC[C@]23C)C1` [WFA, Withaferin A]: the IC50 – broadly, the concentration at which inhibition is half-maximal – in experiment [1] was 500 to 1500 nM. Besides, in experiment [2], the Bax transcripts result is listed as “increased” and the Bcl-2 transcripts result is “reduced”. In addition, in experiment [2] (H1650 cells), the BAD transcripts result is on record as “increased”. In experiment [2] (LLC and A549), the Survivin transcripts entry is reported as “reduced” and the Xiap transcripts entry is recorded as “reduced”. Further, the Bak-1 transcripts entry in experiment [2] (LLC cells) is given as “increased”.
